Kd data for 30 molecules are collected here from patent publication US20260373266A1, “PROTEIN DEGRADERS AND USES THEREOF” (KYMERA THERAPEUTICS, INC., priority 2022, published 2026).

SMILES strings stand for the structures.

For the assay, the target named is T1, DCAF1 WD40 domain (residues 1077-1390) (Homo sapiens, UniProt Q9Y4B6).
T1 construct: DCAF1 WD40 domain (residues 1077-1390)
T1 sequence (Q9Y4B6 1077-1390): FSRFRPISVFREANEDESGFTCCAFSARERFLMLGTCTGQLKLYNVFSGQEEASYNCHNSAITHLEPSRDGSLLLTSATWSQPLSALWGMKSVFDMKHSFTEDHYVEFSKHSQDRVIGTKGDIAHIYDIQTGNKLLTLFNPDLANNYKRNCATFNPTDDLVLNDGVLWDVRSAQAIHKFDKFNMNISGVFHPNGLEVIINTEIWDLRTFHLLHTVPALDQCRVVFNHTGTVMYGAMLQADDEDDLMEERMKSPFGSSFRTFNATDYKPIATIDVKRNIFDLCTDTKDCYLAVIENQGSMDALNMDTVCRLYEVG
The experiment in a line: DCAF1 binding assay by SPR (Biacore 8K+), DCAF1-3 KD. As to conditions: 25 °C, read-out: DCAF1-3 SPR (KD). (Surface plasmon resonance follows binding to a sensor surface in real time, without labels.)
Turning to `c1ccc2cc(N3CCC[C@@H](Nc4nccc(N5CCOCC5)n4)C3)ncc2c1` [I-47], the dissociation constant (Kd) (commonly the equilibrium constant for the complex coming apart) lay in the range of 100 to 200 µM.
As for `CS(=O)(=O)CCCC(=O)N1CCC[C@@H](Nc2cc(N3CCOCC3)ccn2)C1` [I-768], the figure is above 200 µM; as for `Fc1cccc(N2CCC[C@@H](Nc3cc(C4CCOCC4)[nH]n3)C2)c1` [I-608], above 200 µM.
Turning to `C=CC(=O)Nc1ccc2[nH]cc(C(=O)N[C@@H](CC(N)=O)c3cccc(Cl)c3)c2c1` [I-475], the Kd is above 200 µM.
As for `O=C(Nc1nc2c(s1)CCCC2)[C@@H]1CCCN(c2cccc(F)c2)C1` [I-669], the figure is above 200 µM; as for `NC(=O)[C@H]1C[C@@H](Nc2cc(N3CCCCC3)ccn2)CN(c2cccc(F)c2)C1` [I-1032], 10 to 100 µM; as for `CN1C[C@H](Nc2cc(N3CCOCC3)ccn2)CCC1CC(=O)Nc1cccc(Cl)c1` (stereo partly drawn) [I-145], above 200 µM.
In the case of `Fc1cccc(N2CCC[C@H]3[C@@H]2CCN3c2cc(N3CCCCCC3)ccn2)c1` [I-636] it was below 10 µM; in that of `CS(=O)(=O)N(c1cc(N2CCOCC2)ccn1)[C@@H]1CCCN(c2cccc(F)c2)C1` [I-304], above 200 µM.
As for `COCCOCC[C@@H]1CCCN(c2ccnc(N3CC[C@H]4[C@@H]3CCCN4c3cccc(F)c3)c2)C1` [I-714], the figure is 10 to 100 µM; as for `COCCOCC[C@@H]1CN(c2cc(N3CCCCC3)ccn2)[C@H]2CCCN(c3cccc(F)c3)[C@@H]12` [I-934], below 10 µM.
As to `c1cc(N2CCOCC2)cc(N[C@@H]2CCCN(c3ccc4c(N5CCNCC5)ccnc4c3)C2)n1` [I-858], the Kd lay in the range of 10 to 100 µM.
In the case of `Cc1n[nH]c(C(F)(F)F)c1C(=O)N[C@@H](CC(N)=O)c1ccccc1` [I-837] it was above 200 µM; in that of `c1cc(N2CCOCC2)cc(N[C@@H]2CCCN(c3ccc(CN4CCOCC4)cn3)C2)n1` [I-786], 10 to 100 µM.
In the case of `CC(C)n1ncc(C(=O)N[C@@H](CC(N)=O)c2cccc(Cl)c2)c1-c1ccccc1F` [I-134] it was 100 to 200 µM; in that of `OCc1cnc2ccc(N3CCC[C@@H](Nc4cc(N5CCOCC5)ccn4)C3)nn12` [I-696], 10 to 100 µM.
In the case of `Fc1cccc(N2CCC[C@@H](Nc3cc([C@@H]4CCCOC4)ccn3)C2)c1` [I-123], the Kd is above 200 µM.
In the case of `CNC(=O)C[C@H](NC(=O)c1c[nH]c(C(=O)COCCOCCOCCOCCOCCNC(=O)C[C@@H]2N=C(c3ccc(Cl)cc3)c3c(sc(C)c3C)-n3c(C)nnc32)c1-c1c(F)ccc(F)c1C)c1cccc(Cl)c1` [I-910] it was below 10 µM; in that of `NC(=O)C[C@@]1(NC(=O)c2c[nH]nc2-c2ccccc2F)CCc2cc(Cl)ccc21` [I-242], above 200 µM.
In the case of `Cc1c(F)ccc(F)c1-c1c(C(=O)N[C@@H](CC(N)=O)c2cccc(Cl)c2)cn(C)c1C(=O)c1ccc(OCCOCCOCCOCCN)cc1` [I-1024] it was below 10 µM; in that of `NC(=O)C[C@H](C(=O)Nc1cnn(Cc2ccccc2)c1-c1ccccc1F)c1cccc(Cl)c1` [I-153], above 200 µM.
As for `N#Cc1cccc(-c2[nH]ncc2C(=O)N[C@@H](CC(N)=O)c2cccc(Cl)c2)c1` [I-337], the Kd was below 10 µM.
Take `C=CC(=O)N1CCC[C@@H](Nc2cc(N3CCOCC3)ccn2)C1` [I-449]: the Kd was above 200 µM.
In the case of `CC(NC(=O)c1cn[nH]c1-c1cccc(Cl)c1)c1ccc[nH]1` (stereo not drawn) [I-836] it was above 200 µM.
In the case of `Fc1cccc(N2CC[C@@H]3CN(c4cc(N5CCCCC5)ccn4)C[C@@H]32)c1` [I-667] it was 10 to 100 µM; in that of `Fc1cccc(N2CCC[C@@H](Nc3cc(N4C5CCCC4C5)ccn3)C2)c1` [I-616], below 10 µM.
As for `OCCC[C@H]1C[C@H]2[C@@H](CCCN2c2cccc(F)c2)N1c1cc(N2CCCCC2)ccn1` [I-834], the figure is 10 to 100 µM.
For the molecule `O=C1Nc2cnc(N3CCCCC3)cc2NC12CCCN(c1cccc(F)c1)C2` (stereo not drawn) [I-992], the Kd lay within 10 to 100 µM.
As to `O=[N+]([O-])c1ccc(N2CCC[C@@H](n3ccc4c(N5CCCCC5)ccnc43)C2)cc1F` [I-917], the Kd is below 10 µM.
`NCCCCCCCCCCCCCCC1CCN(c2ccnc(N3CC[C@@H]4[C@H]3CCCN4c3cccc(F)c3)c2)CC1` [I-725]: the Kd is 10 to 100 µM.
